Reference: patent US11708423B2, “Chimeric engulfment receptor molecules and methods of use” (CERO THERAPEUTICS, INC., priority 2017, dated 2023)

Key:
[1] = system: HCC159 lung adenocarcinoma cells; assay: Tim4-IgG1 Fc staining for phosphatidylserine exposure after EGFR inhibitor treatment; type: cell-based; details: 12 hours, increasing concentrations 50 nM and higher
Text: HCC159 lung adenocarcinoma cells harbor an EGFR mutation and are sensitive to EGFR inhibition.

[2] = system: dexamethasone pre-treated thymocytes; assay: Phagocytosis of thymocytes by CER Ba/F3 cells in presence or absence of Racl inhibitor; type: cell-based

| Compound | surface staining with Tim4-IgG1 Fc fusion protein (phosphatidylserine exposure) [1] | effect of Racl inhibitor on phagocytosis by CER21-transduced Ba/F3 cells ([2]; 6 hour co-culture, FACS) | effect of Racl inhibition on CER116 mediated phagocytosis ([2]; Ba/F3 cells, fluorescent micrographs) |
| --- | --- | --- | --- |
| C#Cc1cccc(Nc2ncnc3cc(OCCOC)c(OCCOC)cc23)c1 [Erlotinib] | enhanced surface staining with Tim4-IgG1 Fc fusion protein | – | – |
| C=CC(=O)Nc1cc(Nc2nccc(-c3cn(C)c4ccccc34)n2)c(OC)cc1N(C)CCN(C)C [Osimeritinib] | enhanced surface staining with Tim4-IgG1 Fc fusion protein | – | – |
| CCN(CC)CCCC(C)Nc1nc(C)cc(Nc2ccc3nc(C)cc(N)c3c2)n1 (stereo not shown) [NSC23766] | – | abolishes phagocytosis | abolishes CER116 mediated phagocytosis of thymocytes |
